A short description of data set [1]: Correlation between the blood level and the content in saliva (CoQ10 ingestion tests part 1 and 2). The class given is in vivo, human. As to the method: 11 volunteers were made to ingest orally two tablets (CoQ10 content: 100 mg in two tablets) of Q10AA Multi (trade name, Shiseido Co., Ltd., hereinafter may be referred to “Supplement S”), a commercial CoQ10 supplement, at 7:00 every morning continuously for a week. Meanwhile, the contents of the fat-soluble vitamins and fat-soluble food factors in the Supplement S are 50 mg/tablet as for CoQ10, and 16.4 mg/tablet as for α-tocopherol. Then parotid saliva, directly collected saliva and heparinized plasma were collected from PM 4:00 to 5:00, three times, before and one week after ingestion and two weeks after discontinuation of ingestion. The volunteer had the mouth rinsed with water, and kept quiet on a chair for 5 minutes, while the volunteer accumulated saliva in the oral cavity and discharge to initialize the oral cavity, followed by collecting saliva. Approximately 1 ml of saliva accumulated in the oral cavity was collected as directly collected saliva. In order to collect saliva from the parotid gland, an absorbent cotton of 2 g was put beneath the tongue to prevent contamination with saliva from sublingual gland and submandibular gland, while the Saliva-sampler comprising a cotton saliva absorber and an indicator which informed termination of collection by color change was inserted between the teeth and the cheek near the open of the parotid gland. […]

A short description of data set [2]: Extraction of CoQ10 from saliva and absorbent depending on deproteinization solvent. The class given is physicochemical. On the procedure:
In the method of preparing the specimens in examples 1 and 2, the solvents were weighed using ethanol (90, 75, 50%), isopropanol (90, 75, 50%) or methanol (90, 75, 50%). Saliva of 600 μl, and 600, 1800 and 5400 μl of the solvent respectively were added to 50 mg of an absorbent to have a final concentrations of 50, 75 and 90% (V/V) respectively. The resultant solution was mixed, stirred, and centrifuged at 4° C. by 1000 G to get a supernatant, 20 μl of which was used to analyze CoQ10 by HPLC. As a result, the values shown in the following Table 2 “The CoQ10 concentrations in the supernatant obtained by deproteinizing saliva in three solvents and at three concentration levels (ng/ml)” were obtained. Ethanol, which was not affected by adsorption to proteins even at a concentration of 75% and could efficiently extract, was confirmed to be most suitable.

Data set [3] can be described thus: Extraction of CoQ10 from absorbent materials with 75% (V/V) ethanol. The class given is physicochemical. On the procedure:
In the method of preparing the specimens in example 2, the absorbent materials for saliva and the collection rate by extraction with 75% (V/V) ethanol were weighed. An absorbent of 50 mg was soaked in 600 μl of saliva, to which […] of ethanol was added, mixed, and centrifuged at 4° C. by 1000 G or 5 minutes to remove proteins, and 20 μl of the supernatant was subjected to HPLC. The results of analysis for CoQ10 are shown in Table 3 as “CoQ10 concentrations in saliva which was obtained by steps that 50 mg of the absorbent was soaked in 600 μl of saliva and the saliva was extracted with 1800 μl of ethanol (final concentration: 75%)”. […] Thus, although the fat-soluble components in saliva are adsorbed to the absorbent, the content in a certain amount of saliva can be determined by analyzing the summation of the fat-soluble food factors and the fat-soluble vitamins contained in saliva preserved in the absorbent and interspace.

Where [4] appears, read: Acetylcellulose + ethanol (final concentration 75%).
Where [5] appears, read: Cotton + ethanol (final concentration 75%).
Setting [6] is: Polyester + ethanol (final concentration 75%).
[7] abbreviates: Polyurethane + ethanol (final concentration 75%).

On to `COC1=C(OC)C(=O)C(C/C=C(\C)CC/C=C(\C)CC/C=C(\C)CC/C=C(\C)CC/C=C(\C)CC/C=C(\C)CC/C=C(\C)CC/C=C(\C)CC/C=C(\C)CCC=C(C)C)=C(C)C1=O` [CoQ10, Ubidecarenone], for which the “correlation between concentrations in parotid saliva and plasma” value in data set [1] (112 specimens of examples 2 and 3, FIG. 5) was “good correlation”. Also, the “correlation between levels in directly collected saliva and plasma” value in data set [1] (FIG. 6) was “weak but recognizable correlation”. The “Collection amount of CoQ10 by the solvents” value worked out at 3 ng/mL in data set [2] (ethanol 50 V/V %); 86 ng/mL in data set [2] (ethanol 75 V/V %); 98 ng/mL in data set [2] (ethanol 90 V/V %); 23 ng/mL in data set [2] (isopropanol 50 V/V %); 19 ng/mL in data set [2] (isopropanol 75 V/V %); 56 ng/mL in data set [2] (isopropanol 90 V/V %). Also, the results for the “Collection amount of CoQ10 by the solvents” value in data set [2] (methanol 50 V/V %), in data set [2] (methanol 75 V/V %) and in data set [2] (methanol 90 V/V %) were 2 ng/mL, 2 ng/mL and 61 ng/mL, respectively. Moreover, the “CoQ10 concentration in saliva after extraction” value in data set [3] (setting [4]) is 31.8 ng/mL; in data set [3] (setting [5]), 32.2 ng/mL; in data set [3] (setting [6]) it was 34.2 ng/mL; in data set [3] (setting [7]), 32.1 ng/mL. The Collection rate in data set [3] (setting [4]) was 94.3%; in data set [3] (setting [5]) it was 95.6%; in data set [3] (setting [6]), 102%; in data set [3] (setting [7]) it was 95.2%; in data set [3] (Saliva (control)) it was 100%. Also, the “CoQ10 concentration in saliva” value in data set [3] (Saliva (control)) came to 33.7 ng/mL. Also, in data set [3] (ethanol 75% (V/V)), the “collection by extraction, independent of the absorbent material” value is given as “approximately 100%”.

The values above are taken from patent US7943382B2, “Method for inspecting fat-soluble vitamin and/or fat-soluble food factor by saliva analysis” (Mitsubishi Chemical Medience Corporation, priority 2004, dated 2011).
